Among the data in patent EP0414913A1, “p-AMINOPHENOL DERIVATIVE AND PRODUCTION AND APPLICATION THEREOF” (OTSUKA PHARMACEUTICAL FACTORY, INC., priority 1989, dated 1990) are inhibition in vivo values, retold here.

Structures are written as SMILES.

This experiment concerns male Wistar rats. The experiment is described as follows: Antiinflammatory activity by air pouch technique (croton oil). Type of experiment: in vivo. The following applies: Rattus norvegicus, 192 h, 25 mg/kg/day into the pouch in 5% gum arabic, once a day for 6 days, amount of exudate on day 8 vs control group, ** p<0.01, * p<0.05, read-out: Antiinflammatory rate (%). The procedure:
The antiinflammatory activity of the compound of the invention was determined by an air pouch technique generally comforming to the method described in the literature [Proc. Soc. Exp. Biol. Med., 82 , 328-333, 1953].
The test was carried out using male Wistar rats (average body weight 200 g, 7 animals per group). A thick paper sheet with an oval cutout (2 x 5 cm) was attached to the clipped back of the animal under pentobarbital anesthesia. The skin was picked up through the central cutout and 10 ml of air was injected subcutaneously to prepare an air pouch. Then, 1 ml of 2% croton oil, as a phlogogenic agent, was injected into the pouch. The paper sheet was removed and the animal was gently rotated in order that the croton oil would be thoroughly contacted with the inner wall of the pouch.
The test compound suspended in 5% gum arabic was administered into the pouch (25 mg/kg/day) once a day for 6 days beginning the day after preparation of the pouch. The group of animals subjected to the above treatment was designated as the experimental group.
On day 8, the animals were bled to death and the amount (ml) of exudate in the pouch was measured. The antiinflammatory rate was calculated with the result in the control group ( a group not receiving the test compound) as a reference according to the following equation. [formula]
With `CC(C)(C)c1cc(Nc2ncccn2)cc(C(C)(C)CO)c1O` [Compound 10], the inhibition in vivo at 25 mg/kg/day came to 24%.

`CC(C)(C)c1cc(Nc2nccnn2)cc(C(C)(C)CO)c1O` [Compound 11]: the inhibition in vivo at 25 mg/kg/day was found to be 20%.

Take `CC(=O)OCC(C)(C)c1cc(N(C(C)=O)c2nccs2)cc(C(C)(C)C)c1O` [Compound 14, 2-(2-acetoxy-1,1-dimethylethyl)-6-(1,1-dimethylethyl)-4-[N-acetyl-N-(2-thiazolyl)amino]phenol]: the inhibition in vivo at 25 mg/kg/day is 51%.

As to `CC(=O)OCC(C)(C)c1cc(Nc2nccs2)cc(C(C)(C)C)c1O` [Compound 13, 2-(2-acetoxy-1,1-dimethylethyl)-6-(1,1-dimethylethyl)-4-(2-thiazolylamino)phenol], the inhibition in vivo at 25 mg/kg/day is 60%.

For the compound `CC(C)(C)c1cc(Nc2ccccc2)cc(C(C)(C)CO)c1O` [Compound 6], the inhibition in vivo at 25 mg/kg/day worked out at 14%.

`CC(C)(C)c1cc(Nc2nccs2)cc(C(C)(C)CO)c1O` [Compound 3, 2-(1,1-Dimethylethyl)-6-(1,1-dimethyl-2-hydroxyethyl)-4-[N-(2-thiazolyl)amino]phenol]: the inhibition in vivo at 25 mg/kg/day was 71%.

For `CC(C)(C)c1cc(Nc2cnccn2)cc(C(C)(C)CO)c1O` [Compound 1, 2-(1,1-dimethylethyl)-6-(1,1-dimethyl-2-hydroxyethyl)-4-pyrazinylaminophenol], the inhibition in vivo at 25 mg/kg/day is 68%.

Consider `CC(C)(C)c1cc(Nc2cccnc2)cc(C(C)(C)CO)c1O` [Compound 8], for which the inhibition in vivo at 25 mg/kg/day amounted to 19%.

Consider `CC(C)(C)c1cc(Nc2nc(CC(=O)O)cs2)cc(C(C)(C)CO)c1O` [Compound 15, 2-[3-(1,1-dimethylethyl)-5-(1,1-dimethyl-2-hydroxyethyl)-4-hydroxyphenylamino]-4-thiazolylacetic acid], for which the inhibition in vivo at 25 mg/kg/day was found to be 32%.
